Reference: article PMC4416304, “Nickel quercetinase, a “promiscuous” metalloenzyme: metal incorporation and metal ligand substitution studies” (BMC Biochemistry, 2015)
Residue numbers refer to the chain shown, from its start.

Tests used:
Experiment in all cases: intrinsic protein fluorescence titration
Format in all cases: binding
[1] = biological target: T1, QueD (Ni-QueD; Streptomyces quercetinase) (Streptomyces sp. FLA, UniProt A2VA43, E76D)
T1 construct: C-terminal StrepII tag kept (pET23a-queD-Strep), E. coli BL21(DE3) pLysS grown with Ni2+; monocupin, native enzyme a dimer
T1 sequence (A2VA43 1-186 E76D): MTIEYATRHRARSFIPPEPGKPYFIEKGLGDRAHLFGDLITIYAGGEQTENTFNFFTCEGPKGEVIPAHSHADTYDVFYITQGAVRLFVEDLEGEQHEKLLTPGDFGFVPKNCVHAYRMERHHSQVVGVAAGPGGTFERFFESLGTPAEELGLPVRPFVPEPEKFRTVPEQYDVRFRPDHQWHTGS
Description: (§1) intrinsic protein fluorescence titration on QueD (Ni-QueD; Streptomyces quercetinase)

[2] = biological target: T2, QueD (Ni-QueD; Streptomyces quercetinase) (Streptomyces sp. FLA, UniProt A2VA43, E76H)
T2 construct: C-terminal StrepII tag kept (pET23a-queD-Strep), E. coli BL21(DE3) pLysS grown with Ni2+; monocupin, native enzyme a dimer
T2 sequence (A2VA43 1-186 E76H): T1 sequence (A2VA43 1-186 E76D) with D76H
Description: as §1

[3] = biological target: T3, QueD (Ni-QueD; Streptomyces quercetinase) (Streptomyces sp. FLA, UniProt A2VA43, H115A)
T3 construct: C-terminal StrepII tag kept (pET23a-queD-Strep), E. coli BL21(DE3) pLysS grown with Ni2+; monocupin, native enzyme a dimer
T3 sequence (A2VA43 1-186 H115A): T1 sequence (A2VA43 1-186 E76D) with D76E, H115A
Description: as §1

[4] = biological target: T4, QueD (Ni-QueD; Streptomyces quercetinase) (Streptomyces sp. FLA, UniProt A2VA43, H69A)
T4 construct: C-terminal StrepII tag kept (pET23a-queD-Strep), E. coli BL21(DE3) pLysS grown with Ni2+; monocupin, native enzyme a dimer
T4 sequence (A2VA43 1-186 H69A): T1 sequence (A2VA43 1-186 E76D) with H69A, D76E
Description: as §1

[5] = biological target: T5, QueD (Ni-QueD; Streptomyces quercetinase) (Streptomyces sp. FLA, UniProt A2VA43, H71A)
T5 construct: C-terminal StrepII tag kept (pET23a-queD-Strep), E. coli BL21(DE3) pLysS grown with Ni2+; monocupin, native enzyme a dimer
T5 sequence (A2VA43 1-186 H71A): T1 sequence (A2VA43 1-186 E76D) with H71A, D76E
Description: as §1

[6] = biological target: T6, QueD (Ni-QueD; Streptomyces quercetinase) (Streptomyces sp. FLA, UniProt A2VA43)
T6 construct: C-terminal StrepII tag kept (pET23a-queD-Strep), E. coli BL21(DE3) pLysS grown with Ni2+; monocupin, native enzyme a dimer
T6 sequence (A2VA43 1-186): T1 sequence (A2VA43 1-186 E76D) with D76E
Description: intrinsic protein fluorescence titration on QueD (Ni-QueD; Streptomyces quercetinase) | The K D value of the complex of Ni-QueD with quercetin

Compound `O=c1c(O)c(-c2ccc(O)c(O)c2)oc2cc(O)cc(O)c12` [quercetin] has a Kd [1] of 4 µM, a Kd [2] of 1300 nM and a Kd [3] of 2600 nM. It also gave a Kd [4] of 3.1 µM, a Kd [5] of 10.4 µM and a Kd [6] of 10.1 ± 2.9 µM.
